Experiment [1] has as its target Phosphatidylinositol 4,5-bisphosphate 3-kinase catalytic subunit gamma isoform (Homo sapiens, UniProt P48736). The experiment is described as follows: PI3Kγ (p110γ) Recombinant Human Protein was purchased from Life technology (Grand Island, N.Y.). […] Inhibitors were first diluted serially in DMSO and added to the plate wells before the addition of other reaction components. The final concentration of DMSO in the assay was 2%. The PI3Kγ assay was carried out at room temperature in 20 mM MOPS, pH 6.7, 10 mM MgCl2, 5 mM DTT and CHAPS 0.03%. […] The final concentration of SPA beads is 1.0 mg/mL. After the plate sealing, plates were shaken overnight at room temperature and centrifuged at 1500 rpm for 10 min, the radioactivity of the product was determined by scintillation counting on Topcount (Perkin-Elmer).

The target of experiment [2] is T1, Phosphatidylinositol 4,5-bisphosphate 3-kinase catalytic subunit delta isoform (Homo sapiens, UniProt O00329).
T1 sequence (O00329 whole entry): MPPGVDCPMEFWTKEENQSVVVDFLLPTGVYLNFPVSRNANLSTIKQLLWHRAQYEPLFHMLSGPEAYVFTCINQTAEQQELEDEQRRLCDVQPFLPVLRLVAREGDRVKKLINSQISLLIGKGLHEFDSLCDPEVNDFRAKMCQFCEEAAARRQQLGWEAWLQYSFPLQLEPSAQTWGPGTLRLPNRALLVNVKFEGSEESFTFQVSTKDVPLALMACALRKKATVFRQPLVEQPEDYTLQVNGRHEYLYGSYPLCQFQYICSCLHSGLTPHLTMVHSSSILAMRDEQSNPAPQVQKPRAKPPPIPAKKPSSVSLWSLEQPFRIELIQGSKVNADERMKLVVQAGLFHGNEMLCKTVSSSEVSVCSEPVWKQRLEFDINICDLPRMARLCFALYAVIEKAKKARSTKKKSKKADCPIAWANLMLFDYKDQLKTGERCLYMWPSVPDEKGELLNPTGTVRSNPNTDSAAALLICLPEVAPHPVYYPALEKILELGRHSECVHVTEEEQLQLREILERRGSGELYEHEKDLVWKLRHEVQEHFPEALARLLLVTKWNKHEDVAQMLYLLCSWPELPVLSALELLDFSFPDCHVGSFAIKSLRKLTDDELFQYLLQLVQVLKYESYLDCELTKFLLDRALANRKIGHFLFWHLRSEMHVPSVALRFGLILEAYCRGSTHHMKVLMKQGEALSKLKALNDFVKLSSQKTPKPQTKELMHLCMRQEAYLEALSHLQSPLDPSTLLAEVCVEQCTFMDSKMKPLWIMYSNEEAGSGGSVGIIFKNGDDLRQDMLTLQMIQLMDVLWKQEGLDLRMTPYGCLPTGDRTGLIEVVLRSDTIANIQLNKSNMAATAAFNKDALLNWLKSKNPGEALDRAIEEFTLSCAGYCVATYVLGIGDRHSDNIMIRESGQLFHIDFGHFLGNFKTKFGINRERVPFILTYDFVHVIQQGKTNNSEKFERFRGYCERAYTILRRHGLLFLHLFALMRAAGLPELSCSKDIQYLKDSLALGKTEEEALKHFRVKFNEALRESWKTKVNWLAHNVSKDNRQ
The experiment is described as follows: Scintillation Proximity Assay: PI3Kδ:[γ-33P]ATP (10 mCi/mL) and Wheat Germ Agglutinin (WGA) YSi SPA Scintillation Beads was purchased from Perkin-Elmer (Waltham, Mass.). Lipid kinase substrate, D-myo-Phosphatidylinositol 4,5-bisphosphate (PtdIns(4,5)P2)D (+)-sn-1,2-di-O-octanoylglyceryl, 3-O-phospho linked (PIP2), CAS 204858-53-7, was purchased from Echelon Biosciences (Salt Lake City, Utah). PI3Kδ (p110δ/p85α) Recombinant Human Protein was purchased from Eurofins (St Charles, Mo.). ATP, MgCl2, DTT, EDTA, MOPS and CHAPS were purchased from Sigma-Aldrich (St. Louis, Mo.).The kinase reaction was conducted in polystyrene 384-well Greiner Bio-one white plate from Thermo Fisher Scientific in a final volume of 25 μL. Inhibitors were first diluted serially in DMSO and added to the plate wells before the addition of other reaction components. The final concentration of DMSO in the assay was 2%. The PI3Kδ assay was carried out at room temperature in 20 mM MOPS, pH 6.7, 10 mM MgCl2, 5 mM DTT and CHAPS 0.03%. Reactions were initiated by the addition of ATP, the final reaction mixture consisted of 20 μM PIP2, 2 μM ATP, 0.5 μCi [γ-33P] ATP, 3.4 nM PI3Kδ. Reactions were incubated for 120 min and terminated by the addition of 40 μL SPA beads suspended in quench buffer: 163 mM potassium phosphate pH 7.8, 20% glycerol, 25 mM EDTA. The final concentration of SPA beads is 1.0 mg/mL. […]. A general note: Scintillation proximity formats need no separation of bound from free tracer.

Phosphatidylinositol 4,5-bisphosphate 3-kinase catalytic subunit gamma isoform, sequence (P48736 whole entry, canonical isoform): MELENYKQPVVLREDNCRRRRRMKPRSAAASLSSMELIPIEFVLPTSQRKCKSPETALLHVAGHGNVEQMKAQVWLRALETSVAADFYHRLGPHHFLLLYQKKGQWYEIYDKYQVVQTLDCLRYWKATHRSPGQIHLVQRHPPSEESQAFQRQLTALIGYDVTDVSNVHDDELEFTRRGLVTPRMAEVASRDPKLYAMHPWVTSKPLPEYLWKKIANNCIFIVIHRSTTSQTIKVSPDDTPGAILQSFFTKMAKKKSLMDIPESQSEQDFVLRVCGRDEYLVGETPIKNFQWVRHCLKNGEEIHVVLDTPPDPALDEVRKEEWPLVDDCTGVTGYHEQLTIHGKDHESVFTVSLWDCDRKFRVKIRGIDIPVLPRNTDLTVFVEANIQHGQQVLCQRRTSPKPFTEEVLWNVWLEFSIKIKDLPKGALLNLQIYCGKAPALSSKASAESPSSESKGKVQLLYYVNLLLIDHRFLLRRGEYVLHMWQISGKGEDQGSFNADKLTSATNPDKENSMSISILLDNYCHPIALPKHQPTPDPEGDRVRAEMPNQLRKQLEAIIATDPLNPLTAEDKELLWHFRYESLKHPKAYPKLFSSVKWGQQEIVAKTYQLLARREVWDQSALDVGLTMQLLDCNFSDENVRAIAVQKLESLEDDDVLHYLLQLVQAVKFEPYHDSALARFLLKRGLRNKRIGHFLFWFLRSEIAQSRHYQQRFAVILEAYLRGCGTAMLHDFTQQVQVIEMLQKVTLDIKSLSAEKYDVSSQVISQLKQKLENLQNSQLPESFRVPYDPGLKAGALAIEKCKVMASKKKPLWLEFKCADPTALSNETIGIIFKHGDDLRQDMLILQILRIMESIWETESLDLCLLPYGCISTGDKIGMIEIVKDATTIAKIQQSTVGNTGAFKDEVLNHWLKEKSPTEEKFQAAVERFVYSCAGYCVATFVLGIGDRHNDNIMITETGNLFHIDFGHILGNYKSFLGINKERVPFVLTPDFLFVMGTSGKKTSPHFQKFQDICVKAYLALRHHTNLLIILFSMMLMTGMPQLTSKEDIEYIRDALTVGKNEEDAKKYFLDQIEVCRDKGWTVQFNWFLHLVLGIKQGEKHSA

For the molecule `Cc1ccc(S(=O)(=O)CC2CCC2)cc1-c1cnc2c(N)ncnn12`, the IC50 – broadly, the midpoint of a concentration-inhibition curve – in experiment [1] is < 500 nM; in experiment [2], < 2000 nM.

These data come from ChEMBL document CHEMBL5727418, “Substituted imidazo[2,1-f][1,2,4]triazines, substituted imidazo[1,2-a]pyridines and substituted imidazo[1,2-b]pyridazines as PI3K-gamma inhibitors” (2019).
